The values that follow come from US20230201245A1, “COMPOSITIONS AND METHODS FOR TREATING VIRUS INFECTION” (CZ BIOHUB SF, LLC, priority 2020, published 2023).

In experiment [1] the test system is ZIKV replication complexes. Kind of experiment: In vitro replication assay with crude replication complexes and clickable uridine analog (5EU). The settings on record: crude replication complexes from ZIKV-infected cells. Format: biochemical.
For experiment [2], the system named is ZIKV. The experiment in a line: Quantification of (+)vRNA and viral particles by qPCR and plaque assays, ZIKV-infected cells. The experiment is classed as cell-based. As to conditions: added at 24 h, analyzed at 36 hpi. On the technique in general: Quantitative PCR measures a nucleic acid by following its amplification.
Experiment [3] deals with ZIKV. The experiment is classed as cell-based, ZIKV PRVABC59.
The next experiment has as its system DENV. Format: cell-based, DENV-2 strain 16681.
The test system of a further experiment is PV. Format: cell-based, PV-1 Mahoney.
In experiment [4] the test system is ZIKV RNA translation initiation. The experiment in a line: Sucrose gradient polysome fractionation with qPCR of GAPDH mRNA and ZIKV plus-strand RNA. The experiment is classed as cell-based. As to conditions: then 30 nM RocA for 30 min.
The test system of another experiment is ZIKV NS5 and E. Format: cell-based. As to conditions: added at 24 h, analyzed at 36 hpi; compared to CHX or Puro.
Experiment [5] relates to ebola, chikungunya, influenza and ZIKV. As to conditions: cited from earlier work.

“Also recorded” adds a separate entry of the source. Read-outs that look alike come from different tables or passages of the source.

Turning to `C[C@@]1(O)[C@H](O)[C@@H](CO)O[C@H]1n1cnc2c(N)ncnc21` [2′CMA], the “ZIKV replication in vitro (5EU labelling of newly synthesized RNA)” value in experiment [1] is on record as “reduced”.
For `C[C@@H]1C[C@@H]([C@H](O)CC2CC(=O)NC(=O)C2)C(=O)[C@@H](C)C1` [CHX, cycloheximide], in the experiment with ZIKV [2], the “accumulation of viral RNA or particles” value is on record as “reduced viral replication”.
With `CCOC(=O)c1ccc(-c2ncc(C(=O)OCC)s2)nc1` [PythiDC, Diethyl-pythiDC], the “virus production (ZIKV)” value with ZIKV [3] is “inhibit virus replication”. Moreover, in the experiment with DENV, the “virus production (DENV)” value is “inhibit virus replication”.
With `COc1ccc([C@@]23Oc4cc(OC)cc(OC)c4[C@]2(O)[C@H](O)[C@H](C(=O)N(C)C)[C@H]3c2ccccc2)cc1` [RocA, Rocaglamide A], in the experiment on ZIKV [3], the “virus production (ZIKV)” value was “strongly reduced; also recorded: blocks viral replication; also recorded: drastic dose-dependent decrease”. In the experiment on DENV, the “virus production (DENV)” value is on record as “strongly reduced; also recorded: blocks viral replication; also recorded: drastic dose-dependent decrease”. Further, the “virus production (PV)” value in the experiment on PV was “only minor effects; also recorded: not PV”. Besides, the “distribution of ZIKV plus-strand RNA in gradient fractions” value in experiment [4] (ZIKV-infected cells 24 h) was “shift of ZIKV RNA to lighter fractions”. Moreover, the “distribution of GAPDH mRNA in gradient fractions” value in experiment [4] (mock or ZIKV-infected cells 24 h) was “did not affect”. In the experiment with ZIKV NS5 and E, the “accumulation of NS5 or E” value is on record as “mild inhibitory effect”. Further, in the experiment on ZIKV [2], the “accumulation of viral RNA or particles” value is “reduced viral replication”. Moreover, the “ZIKV replication in vitro (5EU labelling of newly synthesized RNA)” value in experiment [1] is recorded as “reduced”.
Take `CC(/C=C/C(C)=C/[C@@H]1Cc2nc(cs2)[C@@H](C)C[C@@H](N)CC(=O)O[C@@H](C)C/C(C)=C/C=C\C(=O)O1)=C\CN(C)C` [pateamine A]: the antiviral activity entry in experiment [5] is “antiviral activity”.
Turning to `COC(=O)[C@H]1[C@@H](O)[C@@]2(O)c3c(OC)cc(O[C@@H]4O[C@@H]([C@H](O)CO)CO[C@H]4OC)cc3O[C@@]2(c2ccc(OC)cc2)[C@@H]1c1ccccc1` [silvestrol], the antiviral activity result in experiment [5] (against ebola, chikungunya, influenza and ZIKV, literature references) was “antiviral activity”.
